Assay [1] relates to arteria saphena rings. The assay can be described thus: Vasorelaxant effect in vitro (phenylephrine-contracted arteria saphena rings). In kind it is cell-based, Rabbits. The note with it: Oryctolagus cuniculus; rabbit arteria saphena rings, phenylephrine contraction. As for the experimental part: Rabbits are anesthetized or killed by intravenous injection of thiopental sodium (about 50 mg/kg) and exsanguinated. The arteria saphena is removed and divided into rings 3 mm wide. The individual rings are in each case mounted on a pair of hooks of triangular shape, open at the ends and made of special wire (Remanium®) having a diameter of 0.3 mm. Under pretension, each ring is introduced into a 5 ml organ bath containing carbogen-gassed Krebs-Henseleit solution at 37° C. with the following composition (mM): NaCl: 119; KCl: 4.8; CaCl2×2H2O: 1; MgSO4×7H2O: 1.4; KH2PO4: 1.2; NaHCO3: 25; glucose: 10; bovine serum albumin: 0.001%. The force of contraction is detected with Statham UC2 cells, amplified and digitized via A/D converters (DAS-1802 HC, Keithley Instruments, Munich) and recorded in parallel on chart recorders. Contractions are generated by adding phenylephrine.
After several (generally 4) control cycles, the substance to be investigated is added in each further run in increasing dosage, and the height of the contraction reached under the influence of the test substance is compared with the height of the contraction reached in the last preceding run. The concentration necessary to reduce the height of the control value by 50% (IC50) is calculated from this. The standard application volume is 5 μl. The DMSO content in the bath solution corresponds to 0. 1%.

Assay [2] concerns the target T1, Heme-free sGC (Rattus norvegicus, UniProt P20595).
T1 construct: made in house; host or cells: Sf9 insect cells (baculovirus)
T1 sequence (P20595 1-619): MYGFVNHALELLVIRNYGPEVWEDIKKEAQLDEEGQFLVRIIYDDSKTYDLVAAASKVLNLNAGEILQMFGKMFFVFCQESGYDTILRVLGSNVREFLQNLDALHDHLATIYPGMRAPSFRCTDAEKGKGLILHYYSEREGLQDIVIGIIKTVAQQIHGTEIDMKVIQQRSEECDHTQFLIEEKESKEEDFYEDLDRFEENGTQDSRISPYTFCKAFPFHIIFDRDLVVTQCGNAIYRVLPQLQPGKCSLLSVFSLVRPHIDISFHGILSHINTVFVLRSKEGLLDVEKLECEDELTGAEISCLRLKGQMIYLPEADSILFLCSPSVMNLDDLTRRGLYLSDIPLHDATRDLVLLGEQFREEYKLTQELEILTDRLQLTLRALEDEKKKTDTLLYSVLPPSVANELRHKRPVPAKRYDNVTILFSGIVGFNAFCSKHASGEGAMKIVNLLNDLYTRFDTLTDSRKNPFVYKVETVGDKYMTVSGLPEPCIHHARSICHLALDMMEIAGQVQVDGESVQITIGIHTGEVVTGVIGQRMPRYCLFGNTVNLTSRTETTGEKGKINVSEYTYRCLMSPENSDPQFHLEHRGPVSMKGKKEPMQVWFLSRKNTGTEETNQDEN
T1 sequence (P19686 1-690 partner): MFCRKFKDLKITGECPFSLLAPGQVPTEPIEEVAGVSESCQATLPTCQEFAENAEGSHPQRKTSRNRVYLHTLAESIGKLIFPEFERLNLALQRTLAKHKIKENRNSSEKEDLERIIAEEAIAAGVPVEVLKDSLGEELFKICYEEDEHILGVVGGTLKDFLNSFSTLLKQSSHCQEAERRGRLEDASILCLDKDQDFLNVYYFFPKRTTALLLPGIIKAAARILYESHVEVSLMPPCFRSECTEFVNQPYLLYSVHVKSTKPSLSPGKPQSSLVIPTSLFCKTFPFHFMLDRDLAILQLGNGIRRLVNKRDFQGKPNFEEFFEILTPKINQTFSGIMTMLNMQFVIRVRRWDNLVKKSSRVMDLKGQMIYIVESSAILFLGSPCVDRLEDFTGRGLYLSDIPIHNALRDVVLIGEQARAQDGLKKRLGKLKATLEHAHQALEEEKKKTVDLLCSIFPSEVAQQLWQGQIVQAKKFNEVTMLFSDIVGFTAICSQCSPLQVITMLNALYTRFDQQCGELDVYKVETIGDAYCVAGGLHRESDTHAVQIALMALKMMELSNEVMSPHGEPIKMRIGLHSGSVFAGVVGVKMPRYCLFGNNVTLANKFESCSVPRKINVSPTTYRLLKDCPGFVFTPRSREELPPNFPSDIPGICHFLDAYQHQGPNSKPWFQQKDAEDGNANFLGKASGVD
The assay can be described thus: Stimulation of recombinant soluble guanylate cyclase (sGC) in vitro, heme-free enzyme. The assay is classed as biochemical. How it is done: The investigations of the stimulation of recombinant soluble guanylate cyclase (sGC) and the compounds according to the invention with and without sodium nitroprusside and with and without the heme-dependent sGC inhibitor 1H-1,2,4-oxadiazole-(4,3a)-quinoxalin-1-one (ODQ) were carried out according to the method described in detail in the following literature reference: M. Hoenicka, E. M. Becker, H. Apeler, T. Sirichoke, H. Schroeder, R. Gerzer and J.-P. Stasch: Purified soluble guanylyl cyclase expressed in a baculovirus/Sf9 system: stimulation by YC-1, nitric oxide, and carbon oxide. J. Mol. Med. 77 (1999): 14-23.
The heme-free guanylate cyclase was obtained by adding Tween 20 to the sample buffer (final concentration 0.5%).
Activation of sGC by a test substance is stated as n-fold stimulation of basal activity.

Structures are written as SMILES.

In assay [1], `O=C(O)CCCCN(CCc1ccccc1OCc1ccc(-c2ccc(C(F)(F)F)cc2)cc1Cl)Cc1ccc(C(=O)O)cc1` [Example 6] had an IC50 of 0.17 nM. In addition, the “Stimulation (n-fold), heme-free sGC, basal” value in assay [2] (Ex. 6 0.001 μM) is 10 n-fold; in assay [2] (Ex. 6 0.01 μM), 55 n-fold; in assay [2] (Ex. 6 0.1 μM), 81 n-fold; in assay [2] (Ex. 6 1.0 μM), 83 n-fold; in assay [2] (Ex. 6 10 μM), 84 n-fold. The “Stimulation (n-fold), heme-free sGC, + ODQ (10 μM)” value is listed as 25 n-fold in assay [2] (Ex. 6 0.001 μM + ODQ 10 μM); 61 n-fold in assay [2] (Ex. 6 0.01 μM + ODQ 10 μM); 79 n-fold in assay [2] (Ex. 6 0.1 μM + ODQ 10 μM); 83 n-fold in assay [2] (Ex. 6 1.0 μM + ODQ 10 μM); 83 n-fold in assay [2] (Ex. 6 10 μM + ODQ 10 μM).
